The target of test [1] is T1, CDK6 (Homo sapiens, UniProt Q00534).
T1 construct: purchased Invitrogen PR8422B
The test can be described thus: In vitro kinase inhibition IC50, luminescence (ADP Glo), retinoblastoma substrate. Format: biochemical. The settings on record: read-out: CDK6/D1 IC50. The procedure: (§1) IC50 values of compounds against CDK4 and CDK6 were determined by luminescence using retinoblastoma as substrate. Kinase assays were performed in kinase buffer (#PV6135, Invitrogen Life Technologies, Grand Island, N.Y.) where total reaction volume was […] in 96-well half area white plates (#3693, Costar). One microliter of 25×test compounds at specific concentrations (e.g., final concentration range: 0.1 nM-200 nM) was mixed with 10 μL of 2.5×kinase (5 nM, CDK4 #PR8064A and CDK6 #PR8422B, Invitrogen) solution and 14 μL of 4× mixed solution with retinoblastoma (1 μM, #12-439, EMD Millipore, Hayward, Calif.) and ATP (25 μM, #V7038, Promega, Madison, Wis.). The plates were covered and incubated for 2H at room temperature. At the end of incubation, 25 μL of stop solution—ADP Glo reagent (#V7002, Promega) was added. After incubation for 45 min at room temperature, 50 μL of detection reagent (##V7002, Promega) was added. Readings were taken at 15 min and 45 min incubation after detection reagent was added in a Synergy Neo Plate reader (BioTek, Winooski, Vt.) at single excitation of 340 nm and Dual emission at 495 nm and 520 nm respectively. The following equations were used in the CDK4 and CDK6 assay data analysis. Percent inhibition (100-% activity) was fitted to the “four-parameter logistic model” in XLfit for determination of IC50 values.
(§2) Percent conversion of enzyme=100−{(RLUNo Drug−No enzyme*100)/RLUNo drug+Enzyme} Equation 1:
(§3) Percent conversion at each data point=100−{(RLUAverage(Drug+enzyme)*100)!RLUNo drug+Enzyme} Equation 2:
(§4) Percent Inhibition=100*(% Conversioneach data point/% ConversionEnzyme) Equation 3: […]
(In general: ADP-Glo turns the ADP formed in a reaction into a luminescent signal.)

Test [2] deals with T2, CDK4 (Homo sapiens, UniProt P11802).
T2 construct: purchased Invitrogen PR8064A
T2 sequence (P11802 whole entry): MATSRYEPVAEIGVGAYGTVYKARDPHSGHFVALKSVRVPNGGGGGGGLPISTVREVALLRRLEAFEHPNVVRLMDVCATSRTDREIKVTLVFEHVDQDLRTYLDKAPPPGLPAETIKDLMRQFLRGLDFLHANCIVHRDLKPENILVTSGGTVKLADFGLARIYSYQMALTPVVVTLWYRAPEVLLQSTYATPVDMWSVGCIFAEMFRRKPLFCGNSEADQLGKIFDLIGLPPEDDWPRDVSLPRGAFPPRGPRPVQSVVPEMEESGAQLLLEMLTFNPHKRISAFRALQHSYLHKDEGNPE
T2 sequence (P24385 whole entry partner): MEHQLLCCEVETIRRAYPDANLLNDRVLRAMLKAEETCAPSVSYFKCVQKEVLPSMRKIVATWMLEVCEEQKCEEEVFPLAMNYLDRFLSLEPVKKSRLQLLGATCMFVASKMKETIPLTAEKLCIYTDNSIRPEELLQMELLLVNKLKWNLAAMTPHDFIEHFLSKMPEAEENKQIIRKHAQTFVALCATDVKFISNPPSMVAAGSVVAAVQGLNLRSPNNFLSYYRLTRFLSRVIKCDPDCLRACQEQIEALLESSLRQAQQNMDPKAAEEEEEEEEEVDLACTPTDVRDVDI
The description is as above. Format: biochemical. The settings on record: read-out: CDK4/D1 IC50. The procedure: as §1, §2, §3, §4

Test [3] concerns the target T3, PI3Kδ kinase (Homo sapiens, UniProt O00329).
T3 construct: purchased Reaction Biology Corporation (assay service)
As to the kind of experiment: PI3Kδ kinase assay (ADP-Glo, Reaction Biology). The class given is biochemical. As to the method: IC50 values of compounds against the PI3Kδ kinase were determined by an assay performed by Reaction Biology Corporation (Malvern, Pa.). Briefly, this assay was conducted in buffer (Tris-HCl 40 mM (pH7.5), Orthovanadate 3 mM, MgCl2 20 mM, DTT 2 mM, CHAPS 0.05%, DMSO 1%). PI3Kδ kinase was added to the reaction solution and mixed gently. The test compounds in 100% DMSO (at specific solutions) were mixed with the kinase reaction mixture to achieve the final compounds at pre-defined concentrations (e.g., range −0.5 nM to 100 μM) by Acoustic technology (Echo550; nanoliter range). After incubating for 10 min at room temp, ATP was added into the reaction mixture to initiate the reaction followed by a 30-min incubation at 30° C. After quenching the reaction with ADP-Glo reagent, the plates were incubated for 40 min. The Detection Mixture was added, and the plate was incubated for an additional 30 min. At the end of incubation, luminescence was measured. For data analysis, the luminescence was converted into μM ADP production based on ADP standard curves. The nonlinear regression to obtain the standard curve and IC50 values was performed using GraphPad Prism (GraphPad Software, Inc., San Diego, Calif.).

Test [4] concerns DU4475 breast carcinoma cells. As to the kind of experiment: Cancer cell proliferation assay, single agent (cell viability). The class given is cell-based. Particulars: Homo sapiens, DU-4475; Table 4; Rb negative; treatment 144 Hr with medium change at 72 Hr; Cell Titer-Glo or resazurin. As to the method:
(§5) The effects of test compounds were studied in three breast cancer cell lines of different subtype. The cancer cells (Table 3) were harvested during the logarithmic growth period and counted. Cell concentrations were adjusted to the appropriate number with respective medium and 90 μL cell suspensions were added to 96-well plates. After cells were seeded, the plates were shaken gently to distribute cells evenly and incubated at 37° C., 5% CO2 on day 1.
(§6) Cells were treated with test compounds at 7 to 9 concentrations within a desired concentration range (e.g. 1.1 nM-10 μM) on day 2 by series diluting the test compound stock solution (10 mM in DMSO) with culture medium. Treatment duration was 24 Hr for BT-549 cells and 144 Hr (with a medium change at 72 Hr) for MCF-7 and DU4475 cells. Cell viability was assessed by Cell Titer-Glo® as recommended by Promega (Cat. No.: G7572), or by resazurin assay (Sigma Aldrich, Cat. No.: R7017) post treatment.
(§7) Cell viability data were plotted using GraphPad Prism (GraphPad Software, Inc., San Diego, Calif.). In addition, a nonlinear regression model with a sigmoidal dose response and variable slope within GraphPad Prism was used to calculate the IC50 value of individual test compounds.

The subject of test [5] is MCF-7 breast adenocarcinoma cells. Described as above. Format: cell-based. The settings on record: Homo sapiens, MCF7, Table 4; Rb positive; treatment 144 Hr with medium change at 72 Hr; Cell Titer-Glo or resazurin. As to the method:
as §5, §6, §7
For orientation: Cellular ATP, detected with luciferase, serves as a proxy for viable cell number.

Test [6] concerns the target T4, FMS kinase (Homo sapiens, UniProt P07333).
T4 construct: purchased Invitrogen (Life Technologies)
The test can be described thus: LanthaScreen Eu Kinase Binding Assay (ATP, fluorescent-PolyGT substrate). Format: biochemical. The procedure:
IC50 values of compounds against FMS kinase were determined by LanthaScreen™ Eu Kinase Binding Assay at Invitrogen (Life Technologies Grand Island, N.Y.) where total reaction volume was 10 μL in low-volume 384-well plates (#4511, Corning). Serially diluted compounds (3-fold) were incubated with kinase (1.25 nM) for 10 min, following which a mixture of ATP (10 μM) (#A1852, Sigma, St-Louis, Mo.) and fluorescent-PolyGT substrate (200 nM) (#PV3610, Invitrogen, Life Technologies Grand Island, N.Y.) was added and incubated in dark at room temperature for 1H. After 1H, 10 μL stop solution containing Terbium labeled antibody (4 nM) (#PV3529, Invitrogen, Life Technologies Grand Island, N.Y.) and EDTA (#E5134, Sigma, St-Louis, Mo.) (20 mM) in TR-FRET dilution buffer (#PV3574, Invitrogen, Life Technologies Grand Island, N.Y.) was added. Readings were taken in a Synergy Neo Plate reader (BioTek, Winooski) at single excitation of 340 nm and Dual emission at 495 nm and 520 nm respectively.
The following equations were used for LanthaScreen Eu Kinase Binding Assay Data Analysis. Percent inhibition (100-% activity) was fitted to the “four-parameter logistic model” in XLfit for determination of IC50 values.
(TR-FRET usually uses a lanthanide donor and a delayed reading to cut background.)

Each structure is given as a SMILES string.

For nine compounds, IC50 results are on record in patent US20220273659A1, “HETEROCYCLIC COMPOUNDS AS KINASE INHIBITORS” (NUVATION BIO INC., priority 2019, published 2022).

T3 sequence (O00329 whole entry): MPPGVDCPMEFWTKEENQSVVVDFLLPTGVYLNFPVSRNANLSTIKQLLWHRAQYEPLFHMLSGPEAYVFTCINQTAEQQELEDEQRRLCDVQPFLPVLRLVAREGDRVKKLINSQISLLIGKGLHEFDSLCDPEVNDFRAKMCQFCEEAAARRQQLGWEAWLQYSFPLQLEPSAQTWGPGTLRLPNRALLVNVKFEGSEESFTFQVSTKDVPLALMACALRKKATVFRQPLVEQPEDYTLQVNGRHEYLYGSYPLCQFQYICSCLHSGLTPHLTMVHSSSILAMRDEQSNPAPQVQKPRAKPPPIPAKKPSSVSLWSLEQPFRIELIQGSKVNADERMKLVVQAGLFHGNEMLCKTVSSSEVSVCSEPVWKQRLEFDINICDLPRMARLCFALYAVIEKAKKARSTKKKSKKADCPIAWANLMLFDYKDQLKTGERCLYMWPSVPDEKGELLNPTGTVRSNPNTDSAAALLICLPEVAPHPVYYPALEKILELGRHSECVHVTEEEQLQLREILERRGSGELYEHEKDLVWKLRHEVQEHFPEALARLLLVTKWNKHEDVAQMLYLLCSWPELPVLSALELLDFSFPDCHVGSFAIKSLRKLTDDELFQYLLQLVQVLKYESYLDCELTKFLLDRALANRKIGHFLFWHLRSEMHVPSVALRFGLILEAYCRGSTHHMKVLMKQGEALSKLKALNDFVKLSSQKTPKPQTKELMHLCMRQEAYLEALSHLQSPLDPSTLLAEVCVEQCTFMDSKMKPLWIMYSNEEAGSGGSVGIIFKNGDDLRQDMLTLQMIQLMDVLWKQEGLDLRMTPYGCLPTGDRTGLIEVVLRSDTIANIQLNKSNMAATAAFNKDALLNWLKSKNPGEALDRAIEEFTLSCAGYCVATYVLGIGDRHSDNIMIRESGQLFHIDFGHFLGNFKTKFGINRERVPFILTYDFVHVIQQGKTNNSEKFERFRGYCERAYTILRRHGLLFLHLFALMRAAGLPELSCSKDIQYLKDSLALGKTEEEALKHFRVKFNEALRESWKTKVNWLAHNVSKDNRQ
T3 sequence (P27986 whole entry partner): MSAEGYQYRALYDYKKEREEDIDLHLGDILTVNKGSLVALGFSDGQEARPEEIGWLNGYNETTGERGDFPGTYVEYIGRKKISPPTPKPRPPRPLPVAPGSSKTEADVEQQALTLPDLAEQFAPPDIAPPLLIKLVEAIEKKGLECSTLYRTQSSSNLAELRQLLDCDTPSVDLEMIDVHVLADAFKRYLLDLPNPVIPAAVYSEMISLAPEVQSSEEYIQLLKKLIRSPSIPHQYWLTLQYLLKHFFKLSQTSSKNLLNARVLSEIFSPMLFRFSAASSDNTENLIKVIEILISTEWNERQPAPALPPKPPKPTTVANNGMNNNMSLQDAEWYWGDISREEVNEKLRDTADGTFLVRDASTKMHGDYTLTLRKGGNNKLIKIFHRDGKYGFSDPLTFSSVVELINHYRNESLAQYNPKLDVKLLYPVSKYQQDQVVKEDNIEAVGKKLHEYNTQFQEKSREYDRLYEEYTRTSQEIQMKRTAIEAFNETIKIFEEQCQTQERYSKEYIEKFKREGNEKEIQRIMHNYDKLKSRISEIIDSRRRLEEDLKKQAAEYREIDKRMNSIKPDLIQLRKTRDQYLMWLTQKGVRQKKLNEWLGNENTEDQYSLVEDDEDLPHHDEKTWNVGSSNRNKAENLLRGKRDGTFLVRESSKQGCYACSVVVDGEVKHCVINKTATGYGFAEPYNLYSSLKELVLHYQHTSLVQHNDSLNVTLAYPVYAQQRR
T1 sequence (Q00534 whole entry): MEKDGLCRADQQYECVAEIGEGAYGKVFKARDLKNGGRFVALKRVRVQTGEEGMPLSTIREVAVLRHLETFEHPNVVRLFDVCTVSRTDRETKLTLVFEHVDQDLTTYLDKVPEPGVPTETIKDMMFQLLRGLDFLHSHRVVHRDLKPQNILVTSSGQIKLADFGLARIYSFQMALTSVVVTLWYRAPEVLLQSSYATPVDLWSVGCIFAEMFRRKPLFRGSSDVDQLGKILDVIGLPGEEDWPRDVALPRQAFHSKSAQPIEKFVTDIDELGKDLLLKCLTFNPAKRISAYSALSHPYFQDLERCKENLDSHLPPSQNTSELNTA
T1 sequence (P24385 whole entry partner): as the sequence (P24385 whole entry partner) above
T4 sequence (P07333 20-972): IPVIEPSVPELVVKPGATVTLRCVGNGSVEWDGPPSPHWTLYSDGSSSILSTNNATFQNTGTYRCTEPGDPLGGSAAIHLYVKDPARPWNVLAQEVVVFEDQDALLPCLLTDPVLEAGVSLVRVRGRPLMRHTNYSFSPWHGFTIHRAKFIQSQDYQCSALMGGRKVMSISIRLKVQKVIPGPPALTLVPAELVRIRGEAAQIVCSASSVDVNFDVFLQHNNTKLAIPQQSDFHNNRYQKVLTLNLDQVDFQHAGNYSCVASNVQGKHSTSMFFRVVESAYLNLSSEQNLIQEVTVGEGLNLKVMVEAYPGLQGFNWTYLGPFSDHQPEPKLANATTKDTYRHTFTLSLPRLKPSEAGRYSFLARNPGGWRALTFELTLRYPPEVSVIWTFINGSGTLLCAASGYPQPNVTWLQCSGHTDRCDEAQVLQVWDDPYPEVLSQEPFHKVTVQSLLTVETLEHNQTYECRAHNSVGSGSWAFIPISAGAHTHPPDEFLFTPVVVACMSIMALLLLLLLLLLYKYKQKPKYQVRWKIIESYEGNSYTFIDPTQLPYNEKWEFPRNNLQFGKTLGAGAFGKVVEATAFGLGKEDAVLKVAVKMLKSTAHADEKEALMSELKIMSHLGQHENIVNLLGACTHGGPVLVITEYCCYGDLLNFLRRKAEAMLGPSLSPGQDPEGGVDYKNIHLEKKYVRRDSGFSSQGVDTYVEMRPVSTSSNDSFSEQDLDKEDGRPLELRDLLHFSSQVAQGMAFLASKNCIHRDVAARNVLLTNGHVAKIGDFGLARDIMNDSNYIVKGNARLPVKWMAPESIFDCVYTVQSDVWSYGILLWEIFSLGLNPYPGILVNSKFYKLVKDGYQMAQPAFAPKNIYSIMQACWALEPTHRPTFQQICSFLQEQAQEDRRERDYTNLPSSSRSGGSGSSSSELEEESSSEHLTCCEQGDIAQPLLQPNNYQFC

As to `CCC(CC)n1c(=O)c(C#N)cc2cnc(Nc3ccc4c(c3)CCNC4)nc21` [Compound No. 86, 7-oxo-8-(pentan-3-yl)-2-((1,2,3,4-tetrahydroisoquinolin-6-yl)amino)-7,8-dihydropyrido[2,3-d]pyrimidine-6-carbonitrile], the IC50 in test [1] stood at 25 nM; in test [2], 177 nM; in test [3] it was 840 nM; in test [4], 1400 nM; in test [5], 532 nM.

With `CN1CCN(S(=O)(=O)c2ccc(Nc3ncc4cc(C#N)c(=O)n(C5CCCC5)c4n3)cc2)CC1` [Compound No. 15, 8-cyclopentyl-2-((4-((4-methylpiperazin-1-yl)sulfonyl)phenyl)amino)-7-oxo-7,8-dihydropyrido[2,3-d]pyrimidine-6-carbonitrile], the IC50 turned out to be 3730 nM in test [3] and 5.5 nM in test [6].

As to `N#Cc1cc2ccc(Nc3ccc4c(c3)CCNC4)nc2n(C2CCCC2)c1=O` [Compound No. 97, 1-cyclopentyl-2-oxo-7-((1,2,3,4-tetrahydroisoquinolin-6-yl)amino)-1,2-dihydro-1,8-naphthyridine-3-carbonitrile], the IC50 in test [1] is > 200 nM; in test [2], > 200 nM; in test [3] it was > 50000 nM; in test [4] it was 1270 nM; in test [5], 1610 nM.

`CN1CCN(c2ccc(Nc3ccc4cc(C#N)c(=O)n(C5CCCC5)c4n3)cc2)CC1` [Compound No. 96, 1-cyclopentyl-7-((4-(4-methylpiperazin-1-yl)phenyl)amino)-2-oxo-1,2-dihydro-1,8-naphthyridine-3-carbonitrile]: the IC50 is 154 nM in test [1]; > 200 nM in test [2]; > 50000 nM in test [3]; 1700 nM in test [4]; 2440 nM in test [5].

Consider `CN(C)CCNC(=O)c1cccc(Nc2ncc3cc(C#N)c(=O)n(C4CCCC4)c3n2)c1` [Compound No. 11, 3-((6-cyano-8-cyclopentyl-7-oxo-7,8-dihydropyrido[2,3-d]pyrimidin-2-yl)amino)-N-(2-(dimethylamino)ethyl)benzamide], for which the IC50 in test [3] was 1030 nM; in test [6] it was 2.4 nM.

As to `CCC(C)n1c(=O)c(C#N)cc2cnc(Nc3ccc4c(c3)CCNC4)nc21` (centres unmarked) [Compound No. 80, 8-(sec-butyl)-7-oxo-2-((1,2,3,4-tetrahydroisoquinolin-6-yl)amino)-7,8-dihydropyrido[2,3-d]pyrimidine-6-carbonitrile], the IC50 in test [1] was 22 nM; in test [2], 128 nM; in test [3] it was 295 nM; in test [4], 870 nM; in test [5], 498 nM.

Consider `CN1CCC(c2ccc(Nc3ccc4cc(C#N)c(=O)n(C5CCCC5)c4n3)cc2)CC1` [Compound No. 98, 1-cyclopentyl-7-((4-(1-methylpiperidin-4-yl)phenyl)amino)-2-oxo-1,2-dihydro-1,8-naphthyridine-3-carbonitrile], for which the IC50 in test [1] was > 200 nM; in test [2] it was > 200 nM; in test [3], > 50000 nM; in test [4] it was 1430 nM; in test [5] it was 1720 nM.

Consider `CC1(C)CNCc2cc(Nc3ncc4cc(C#N)c(=O)n(C5CCCC5)c4n3)ccc21` [Compound No. 8, 8-cyclopentyl-2-((4,4-dimethyl-1,2,3,4-tetrahydroisoquinolin-7-yl)amino)-7-oxo-7,8-dihydropyrido[2,3-d]pyrimidine-6-carbonitrile], for which the IC50 in test [3] was 2460 nM.

Consider `N#Cc1cc2cnc(Nc3ccc(S(=O)(=O)N4CCC(O)CC4)cc3)nc2n(C2CCCC2)c1=O` [Compound No. 14, 8-cyclopentyl-2-((4-((4-hydroxypiperidin-1-yl)sulfonyl)phenyl)amino)-7-oxo-7,8-dihydropyrido[2,3-d]pyrimidine-6-carbonitrile], for which the IC50 stood at 976 nM in test [3] and 2.5 nM in test [6].
